Results: US20250230193A1, “CYCLIC COMPOUND HAVING SELECTIVE KRAS INHIBITORY EFFECT ON HRAS AND NRAS” (CHUGAI SEIYAKU KABUSHIKI KAISHA, priority 2022, published 2025)
Where a SMILES comes first, the peptide text is derived from it. Bridges are numbered along the chain shown (N, C = ends). [ ]: non-standard residue; d: D form. The star is where a group is joined. hPhe(3,5-F2-4-CF3) = N[C@@H](CCc1cc(F)c(C(F)(F)F)c(F)c1)C(=O)O; NPrPhe(4-CF3) = CCCN[C@@H](Cc1ccc(C(F)(F)F)cc1)C(=O)O; NMeGly(cPent) = CN[C@H](C(=O)O)C1CCCC1; Ac4c(3,3-F2) = NC1(C(=O)O)CC(F)(F)C1; αMeCha = C[C@](N)(CC1CCCCC1)C(=O)O; αMeF = C[C@](N)(Cc1ccccc1)C(=O)O; NMeD = CN[C@@H](CC(=O)O)C(=O)O; Ac4c(3-oxa) = NC1(C(=O)O)COC1; NMeL = CN[C@@H](CC(C)C)C(=O)O; αMeS = C[C@](N)(CO)C(=O)O; Sar = CNCC(=O)O; tBu = CC(C)(C)*; Allyl = C=CC*

Key:
[1] = molecular target: GDP-bound HRAS wild-type protein (Homo sapiens, UniProt P01112); test: Binding to HRAS by surface plasmon resonance (SPR), Single Cycle Kinetics; details: KD ratio HRAS/KRAS, SPR
GDP-bound HRAS wild-type protein, sequence (P01112 whole entry): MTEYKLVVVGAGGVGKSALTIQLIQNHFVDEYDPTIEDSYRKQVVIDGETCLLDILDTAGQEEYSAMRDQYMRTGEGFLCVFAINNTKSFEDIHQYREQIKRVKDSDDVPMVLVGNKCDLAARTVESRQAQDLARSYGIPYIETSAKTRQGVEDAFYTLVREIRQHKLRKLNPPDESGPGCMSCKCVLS

[2] = molecular target: GDP-bound NRAS wild-type protein (Homo sapiens, UniProt P01111); test: Binding to NRAS by surface plasmon resonance (SPR), Single Cycle Kinetics; details: KD ratio NRAS/KRAS, SPR
GDP-bound NRAS wild-type protein, sequence (P01111 whole entry): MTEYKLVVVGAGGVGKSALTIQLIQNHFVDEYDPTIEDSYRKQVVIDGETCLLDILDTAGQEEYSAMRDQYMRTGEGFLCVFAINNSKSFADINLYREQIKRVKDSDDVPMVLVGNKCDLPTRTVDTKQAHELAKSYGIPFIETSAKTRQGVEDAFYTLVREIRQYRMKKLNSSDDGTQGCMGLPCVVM

| Compound | HRAS/KRAS (ratio of KD value with respect to GDP-bound HRAS wild-type protein to KD value with respect to KRAS) [1] | NRAS/KRAS (ratio of KD value with respect to GDP-bound NRAS wild-type protein to KD value with respect to KRAS) [2] |
| --- | --- | --- |
| CCCN1C(=O)CN(C)C(=O)CN(C)C(=O)[C@H]([C@@H](C)CC)NC(=O)[C@H](CC(C)C)N(C)C(=O)C[C@@H](C(=O)N(C)C)N(C)C(=O)[C@H](C2CCCC2)N(C)C(=O)[C@](C)(CC2CCCCC2)NC(=O)[C@@H]2CCCN2C(=O)[C@H](CCc2cc(F)c(C(F)(F)F)c(F)c2)NC(=O)CN(C)C(=O)[C@@H]1Cc1ccc(C(F)(F)F)cc1 [PP0739] ([NMeL]I[Sar][Sar][NPrPhe(4-CF3)][Sar][hPhe(3,5-F2-4-CF3)]P[αMeCha][NMeGly(cPent)][NMeD]-NMe2; lactam N-11) | C (A compound having a KD ratio of 0.1 or more and less than 3 is denoted as C) | B (a compound having 3 or more and less than 10 is denoted as B) |
| CCCN1C(=O)CN(C)C(=O)CN(C)C(=O)[C@H]([C@@H](C)CC)NC(=O)[C@H](CC(C)C)N(C)C(=O)C[C@@H](C(=O)N(C)C)N(C)C(=O)[C@H](C2CCCC2)N(C)C(=O)[C@](C)(Cc2ccccc2)NC(=O)[C@@H]2CCCN2C(=O)[C@H](CCc2cc(F)c(C(F)(F)F)c(F)c2)NC(=O)CN(C)C(=O)[C@@H]1Cc1ccc(C(F)(F)F)cc1 [PP0740] ([NMeL]I[Sar][Sar][NPrPhe(4-CF3)][Sar][hPhe(3,5-F2-4-CF3)]P[αMeF][NMeGly(cPent)][NMeD]-NMe2; lactam N-11) | C (A compound having a KD ratio of 0.1 or more and less than 3 is denoted as C) | B (a compound having 3 or more and less than 10 is denoted as B) |
| CCCN1C(=O)CN(C)C(=O)CN(C)C(=O)[C@H]([C@@H](C)CC)NC(=O)[C@H](CC(C)C)N(C)C(=O)C[C@@H](C(=O)N(C)C)N(C)C(=O)[C@H](C2CCCC2)N(C)C(=O)[C@](C)(COC)NC(=O)[C@@H]2CCCN2C(=O)[C@H](CCc2cc(F)c(C(F)(F)F)c(F)c2)NC(=O)CN(C)C(=O)[C@@H]1Cc1ccc(C(F)(F)F)cc1 [PP0741] ([NMeL]I[Sar][Sar][NPrPhe(4-CF3)][Sar][hPhe(3,5-F2-4-CF3)]P[αMeS](Me)[NMeGly(cPent)][NMeD]-NMe2; lactam N-11) | B (a compound having 3 or more and less than 10 is denoted as B) | B (a compound having 3 or more and less than 10 is denoted as B) |
| C=CCOC[C@]1(C)NC(=O)[C@@H]2CCCN2C(=O)[C@H](CCc2cc(F)c(C(F)(F)F)c(F)c2)NC(=O)CN(C)C(=O)[C@H](Cc2ccc(C(F)(F)F)cc2)N(CCC)C(=O)CN(C)C(=O)CN(C)C(=O)[C@H]([C@@H](C)CC)NC(=O)[C@H](CC(C)C)N(C)C(=O)C[C@@H](C(=O)N(C)C)N(C)C(=O)[C@H](C2CCCC2)N(C)C1=O [PP0742] ([NMeL]I[Sar][Sar][NPrPhe(4-CF3)][Sar][hPhe(3,5-F2-4-CF3)]P[αMeS](Allyl)[NMeGly(cPent)][NMeD]-NMe2; lactam N-11) | B (a compound having 3 or more and less than 10 is denoted as B) | B (a compound having 3 or more and less than 10 is denoted as B) |
| CCCN1C(=O)CN(C)C(=O)CN(C)C(=O)[C@H]([C@@H](C)CC)NC(=O)[C@H](CC(C)C)N(C)C(=O)C[C@@H](C(=O)N(C)C)N(C)C(=O)[C@H](C2CCCC2)N(C)C(=O)[C@](C)(COC(C)(C)C)NC(=O)[C@@H]2CCCN2C(=O)[C@H](CCc2cc(F)c(C(F)(F)F)c(F)c2)NC(=O)CN(C)C(=O)[C@@H]1Cc1ccc(C(F)(F)F)cc1 [PP0743] ([NMeL]I[Sar][Sar][NPrPhe(4-CF3)][Sar][hPhe(3,5-F2-4-CF3)]P[αMeS](tBu)[NMeGly(cPent)][NMeD]-NMe2; lactam N-11) | C (A compound having a KD ratio of 0.1 or more and less than 3 is denoted as C) | B (a compound having 3 or more and less than 10 is denoted as B) |
| CCCN1C(=O)CN(C)C(=O)CN(C)C(=O)[C@H]([C@@H](C)CC)NC(=O)[C@H](CC(C)C)N(C)C(=O)C[C@@H](C(=O)N(C)C)N(C)C(=O)[C@H](C2CCCC2)N(C)C(=O)C2(COC2)NC(=O)[C@@H]2CCCN2C(=O)[C@H](CCc2cc(F)c(C(F)(F)F)c(F)c2)NC(=O)CN(C)C(=O)[C@@H]1Cc1ccc(C(F)(F)F)cc1 [PP0744] ([NMeL]I[Sar][Sar][NPrPhe(4-CF3)][Sar][hPhe(3,5-F2-4-CF3)]P[Ac4c(3-oxa)][NMeGly(cPent)][NMeD]-NMe2; lactam N-11) | B (a compound having 3 or more and less than 10 is denoted as B) | B (a compound having 3 or more and less than 10 is denoted as B) |
| CCCN1C(=O)CN(C)C(=O)CN(C)C(=O)[C@H]([C@@H](C)CC)NC(=O)[C@H](CC(C)C)N(C)C(=O)C[C@@H](C(=O)N(C)C)N(C)C(=O)[C@H](C2CCCC2)N(C)C(=O)C2(CC(F)(F)C2)NC(=O)[C@@H]2CCCN2C(=O)[C@H](CCc2cc(F)c(C(F)(F)F)c(F)c2)NC(=O)CN(C)C(=O)[C@@H]1Cc1ccc(C(F)(F)F)cc1 [PP0745] ([NMeL]I[Sar][Sar][NPrPhe(4-CF3)][Sar][hPhe(3,5-F2-4-CF3)]P[Ac4c(3,3-F2)][NMeGly(cPent)][NMeD]-NMe2; lactam N-11) | C (A compound having a KD ratio of 0.1 or more and less than 3 is denoted as C) | B (a compound having 3 or more and less than 10 is denoted as B) |
